The test system of data set [1] is Activating transcription factor-3. The data set is described as follows: Activating transcription factor-3 immunofluorescence. The class given is in vivo, CD-1 mice. To be noted: for Anti-ATF-3: SG-fed vs control. How it is done:
(§1) The synthetic SG was mixed with finely ground Purina Chow mouse pellets (Mouse Diet™, Purina) to create the experimental pellets with a SG content of 1000 µg per pellet. Dry materials were blended with a sterile silicon spatula. For every 5 g of standard feed, 2.5 mL of doubly-distilled water (dd)H2O was added and the dough was kneaded and round up into pellets. A single sterol glucoside containing pellet was placed in the feeding tray each morning before the addition of regular mouse chow (ad libitum). All experimental pellets were entirely consumed by the mice each day. Control mice were fed standard mouse chow pellets of identical weight with no additives. SG feeding was conducted daily for 15 weeks and mice were behaviorally monitored until sacrifice at 35 weeks (time point 1) or 52 weeks (time point 2).
Tissue-mounted slides were processed for fluorescence microscopy as follows: Sections were rinsed in coplin jars for 45 minutes at room temperature (RT) in three changes of PBS. Sections were then incubated at RT for 30 minutes in a blocking permeabilization solution made of 5% normal goat serum (NGS), 5% normal rabbit serum (NRS) or 5% BlokHen II (Aves Labs, Inc., Tigard, OR), 0.05% Triton X-100 and PBS. Subsequently, the blocking solution was tipped off and the slides were rinsed in PBS for 2 minutes. […]

For data set [2], the system named is CD-1 mice. As to the kind of experiment: Open field monitoring. The class given is in vivo. As to conditions: SG-fed vs control. Here is the method:
(§2) Five-month old male CD-1 mice (30.1-35.7 g, 7.5 cm - 8.8 cm) were purchased from Charles River (Wilmington, MA). Adult mice were chosen to mimic the mean age of onset of ALS-PDC (Kurland, 1988; Kurland et al., 1994). Thirty mice for the SG study were randomly divided into 2 groups (14 control and 16 experimental animals). All animals were housed singly in a virus-free barrier facility in a room maintained at 22°C under a 12 hour light/dark cycle. The mice were provided ad libitum access to food and water.
as §1
Open field monitoring: Spontaneous activity in an open field is considered one of the most standardized general measures of motor function (Crawley, 2000). The open field test can also reveal stress response in animals (i.e. defensive burying or thigmotaxis) (Karl et al., 2003). Open field testing of each animal was conducted every two weeks. A single mouse was placed in one of four round open field arena/tubs (approximately 1 m diameter) to permit the testing of four animals per 5 minute trial. […] This in turn, increases the likelihood of detection of fear-based behavior (Crawley, 2000) and minimizes habituation of the animal to the open field (Crawley, 2000). Testing arenas were cleaned with 70% ethanol before the testing of each animal and with quatricide at the end of each testing session. Movements were recorded using a video camera mounted on the ceiling. Video clips were reviewed and were manually scored or automatically analysed on an automated video tracking software (Ethovision® 3.1, Noldus Information Technologies Inc., Leesburg, VA, USA). Scoring was done on videotaped sessions, rather than in-person at the time of testing to avoid the introduction of confounding variables by the presence of an observer in close proximity to the mice (Crawley, 2000).

The test system of data set [3] is CD-1 mice. As to the kind of experiment: Rotarod test. The data set is classed as in vivo. As to conditions: SG-fed vs control, duration of the study. How it is done: as §2
The synthetic SG was mixed with finely ground Purina Chow mouse pellets (Mouse Diet™, Purina) to create the experimental pellets with a SG content of 1000 µg per pellet. Dry materials were blended with a sterile silicon spatula. […] SG feeding was conducted daily for 15 weeks and mice were behaviorally monitored until sacrifice at 35 weeks (time point 1) or 52 weeks (time point 2).
Rotorod: The rotarod was used to evaluate motor function, coordination and balance (Jones and Roberts, 1968; Sango et al., 1995; Gerlai et al., 1996a; Sango et al., 1996; Chapillon et al., 1998; Carter et al., 1999; Crawley, 1999; Gerlai and Roder, 1996). The time that a mouse could remain walking on a horizontal (Norflus et al., 1998), rotating axle (3.6 cm diameter; 16 rpm) elevated above an area of padding without falling, clenching on, or jumping off the axle was measured (Crawley, 1999), see FIGURE 15. […]

Entries after “also recorded” stand apart in the source; their conditions may differ. Marks after values point to notes of the source that are not given here.

`CCC(C=CC(C)C1CCC2C3CC=C4CC(OC5OC(CO)C(O)C(O)C5O)CCC4(C)C3CCC12C)C(C)C` (centres unmarked) [SG]: the Anti-ATF-3 immunoreactive cells result in data set [1] (SG-fed group over time, 35 to 52 wk) is reported as “Anti-ATF-3 immunoreactive cells (SG-fed group over time): -48%***”. Besides, the Anti-ATF-3 result in data set [1] (time-point 1, 35 wk) is reported as “Anti-ATF-3:+242%***”. Also, the Anti-ATF-3 result in data set [1] (time-point 2, 52 wk) is given as “Anti-ATF-3:+101%**”. In addition, in the data set with CD-1 mice [2] (time-point 1, 35 wk), the Total distance moved result is “Total distance moved (ns)”, the “Total distance to zone border” value is “Total distance to zone border (ns)” and the Total turn angle entry is recorded as “Total turn angle (ns)”. Besides, the “Total distance to zone border” value in the data set with CD-1 mice [2] (time-point 2, 52 wk) is reported as “Total distance to zone border* (*p<0.05)”. The Rotarod performance result with CD-1 mice [3] is listed as “trend of diminished performance on the rotarod but numbers did not reach statistical significance; also recorded: decrease in the time without fall”.

Source of the values: patent EP2181589A1, “Neurotoxic sterol glycosides” (Shaw, Christopher Ariel, priority 2008, dated 2010).
